Assay results: patent US20230381122A1, “APPLICATION OF N1-DIHYDROCAFFEOYL-N10-CAFFEOYLSPERMIDINE IN PREPARATION OF DRUG, HEALTH PRODUCT OR FUNCTIONAL FOOD” (NINGXIA MEDICAL UNIVERSITY, priority 2022, published 2023)

Assays:
[1] = tested on: PCPA-induced insomnia model of mice; experiment: Number of autonomous activities of mice, PCPA-induced insomnia model; format: in vivo; settings: for Number of autonomous activities, before administration: baseline after PCPA modeling; for Number of autonomous activities, before administration / Number of autonomous activities, after last administration: number in 5 min; for Number of autonomous activities, after last administration: half an hour after administration on the 7th day, PCPA insomnia mice
Description: (§1) The pharmacodynamic evaluation of N1-dihydrocaffeoyl-N10-caffeoylspermidine for improving sleep effect was performed in a mouse insomnia model induced by injection of para-chlorophenylalanine (PCPA). The sedative hypnotic effect of N1-dihydrocaffeoyl-N10-caffeoylspermidine in mice with insomnia were evaluated by behavioral evaluation methods, such as recording of the number of autonomous activities, recording of body weight and inducing sleep experiments in mice with pentobarbital sodium. Brain tissues was obtained to determine the levels of neurotransmitters 5-HT, 5-HIAA, GABA and Glu, and to explore the possible mechanism of the sleep improving effect of N1-dihydrocaffeoyl-N10-caffeoylspermidine.
(§2) Healthy SPF grade male ICR mice (18-22 g) were obtained, which were provided by the animal experimental center of Ningxia Medical University (laboratory animal license number SCXK (Ningxia Medical University) 2020-0001). The mice were adaptively housed in a standard SPF grade laboratory with the same animal housing conditions for each group: ambient temperature (25° C.), relative humidity (50%-60%). The mice were free access to food and water.
(§3) After adaptive feeding, for 2 days of continuous modeling, the normal control group was given normal saline (0.1 mL/10 g/d), and the remaining groups received an intraperitoneal injection of PCPA suspension (400 mg/kg/d).
(§4) The mice in each group were administered sequentially from 8:00 am to 12:00 am daily for 7 days.
(1) Number of autonomous activities: after grouping as above, the number of autonomous activities of mice in 5 min was recorded after successful modeling and half an hour after administration on the 7th day, respectively. Mice were acclimatized into the apparatus for 3 min before each recording.

[2] = Body weight of mice, PCPA-induced insomnia model; format: in vivo; settings: for Body weight, after molding: after PCPA modeling, before administration; for Body weight, before molding: baseline before PCPA modeling; for Body weight, 3rd day of administration / Body weight, 7th day of administration: PCPA insomnia mice
Description: as §1, §2, §3, §4
(2) Body weight: the body weight of mice in each group was recorded before modeling, after modeling, on the 3rd, 7th day of drug administration, respectively.

[3] = tested on: PCPA-induced insomnia model of mice; experiment: Righting reflex experiment with pentobarbital sodium: sleep latency and sleep duration; format: in vivo; settings: for Sleep duration / Sleep latency: pentobarbital sodium 50 mg/kg i.p. one hour after administration on the 7th day, PCPA insomnia mice
Description: as §1, §2, §3, §4
(3) Righting reflex experiment to determine sleep duration: one hour after administration on the 7th day, mice in each group were intraperitoneally injected with pentobarbital sodium suspension (50 mg/kg), and the sleep latency and sleep duration of mice were recorded. (Sleep latency was recorded from the end of the intraperitoneal injection until the disappearance of the mouse righting reflex for more than 1 min; time from falling asleep to the recovery of the mouse righting reflex was recorded as sleep duration.)

5-HT = 5-HT level in brain tissue by ELISA; format: in vivo, mice; settings: for 5-HT: brain tissue, PCPA insomnia mice
Description: as §1, §3, §4
(§5) After administration for 7 days, the mice were sacrificed by cervical dislocation, the brains were removed by decapitation on an ice table, ground evenly with a tissue homogenizer, and normal saline was added to make 10% brain tissue homogenate. The homogenate was centrifuged at 3000 r/min for 15 min at 4° C., then supernatants were collected, and levels of neurotransmitters 5-HT, 5-HIAA, Glu, and GABA were determined by ELISA.

5-HIAA = 5-HIAA level in brain tissue by ELISA; format: in vivo, mice; settings: for 5-HIAA: brain tissue, PCPA insomnia mice
Description: as §1, §3, §4, §5

GABA = GABA level in brain tissue by ELISA; format: in vivo, mice; settings: for GABA: brain tissue, PCPA insomnia mice
Description: as §1, §3, §4, §5

Glu = Glu level in brain tissue by ELISA; format: in vivo; settings: PCPA insomnia mice
Description: as §1, §3, §4, §5

Glu/GABA = Glu/GABA ratio in brain tissue; format: in vivo, mice; settings: for Glu/GABA: brain tissue, PCPA insomnia mice
Description: as §1, §3, §4, §5

[4] = groups at all doses (2, 40, 100 mg/kg/d), p<0.001
[5] = high dose 100 mg/kg/d for 7 days
[6] = medium dose 40 mg/kg/d for 7 days
[7] = groups at all doses (2, 40, 100 mg/kg/d), p<0.05
[8] = 10 mg/kg/d for 7 days, listed as positive drug
[9] = positive drug group (melatonin 10 mg/kg/d)
[10] = 10 mg/kg/d, listed as positive drug
[11] = 10 mg/kg/d for 7 days, 10 mg/kg/day
[12] = 10 mg/kg/d for 7 days, listed as positive drug, 10 mg/kg/day

Q: Which “Number of autonomous activities, before administration” value ([1]; high dose group (100 mg/kg/d)) does the source give for O=C(/C=C/c1ccc(O)c(O)c1)NCCCNCCCCNC(=O)CCc1ccc(O)c(O)c1 [(E)-3-(3,4-dihydroxyphenyl)-N-(3-((4-(3,4-dihydroxyphenyl)propanamido)butyl)amino) propyl) acrylamide] here?
A: 248 ± 18.38

Q: What about the “Number of autonomous activities, before administration” value ([1]; low dose group (2 mg/kg/d)) of the same compound?
A: 249 ± 22.30

Q: What about the “Number of autonomous activities, before administration” value ([1]; medium dose group (40 mg/kg/d)) of the same compound?
A: 246 ± 16.13

Q: What about the “Number of autonomous activities after last administration compared with before administration” value [1, 4] of the same compound?
A: significantly decreased

Q: What about the “Number of autonomous activities, after last administration” value [1, 5] of the same compound?
A: 167 ± 43.35

Q: What about the “Number of autonomous activities, after last administration” value ([1]; low dose 2 mg/kg/d for 7 days) of the same compound?
A: 172 ± 26.39

Q: What about the “Number of autonomous activities, after last administration” value [1, 6] of the same compound?
A: 179 ± 17.43

Q: And the “Body weight, after molding” value ([2]; high dose group (100 mg/kg/d))?
A: 26.87 ± 2.71 g

Q: What about the “Body weight, after molding” value ([2]; low dose group (2 mg/kg/d)) of the same compound?
A: 27.08 ± 3.74 g

Q: And the “Body weight, after molding” value ([2]; medium dose group (40 mg/kg/d))?
A: 27.33 ± 2.13 g

Q: And the “Body weight, before molding” value ([2]; high dose group (100 mg/kg/d))?
A: 26.18 ± 2.78 g

Q: What about the “Body weight, before molding” value ([2]; low dose group (2 mg/kg/d)) of the same compound?
A: 26.74 ± 2.63 g

Q: What about the “Body weight, before molding” value ([2]; medium dose group (40 mg/kg/d)) of the same compound?
A: 25.95 ± 1.99 g

Q: What about the “Body weight on the 3rd day of administration compared with the model group” value [2, 4] of the same compound?
A: increased significantly

Q: What about the “Body weight, 3rd day of administration” value ([2]; high dose 100 mg/kg/d) of the same compound?
A: 32.36 ± 2.39 g

Q: And the “Body weight, 3rd day of administration” value ([2]; low dose 2 mg/kg/d)?
A: 32.02 ± 2.63 g

Q: And the “Body weight, 7th day of administration” value ([2]; low dose 2 mg/kg/d)?
A: 31.83 ± 2.77 g

Q: And the “Body weight, 3rd day of administration” value ([2]; medium dose 40 mg/kg/d)?
A: 31.34 ± 1.76 g

Q: What about the “Body weight, 7th day of administration” value ([2]; medium dose 40 mg/kg/d) of the same compound?
A: 32.12 ± 1.44 g

Q: And the “Sleep duration compared with the model group” value [3, 7]?
A: increased significantly

Q: And the Sleep duration [3, 5]?
A: 17.5 ± 3.15 min

Q: And the Sleep duration ([3]; low dose 2 mg/kg/d for 7 days)?
A: 16.6 ± 9.53 min

Q: What about the Sleep duration [3, 6] of the same compound?
A: 19.9 ± 5.72 min

Q: And the Sleep latency [3, 6]?
A: 298.50 ± 29.08 s

Q: What about the 5-HT (5-HT; [5]) of the same compound?
A: 302.55 ± 17.00 ng/g

Q: What about the 5-HT (5-HT; low dose 2 mg/kg/d for 7 days) of the same compound?
A: 271.37 ± 27.58 ng/g

Q: What about the 5-HT (5-HT; [6]) of the same compound?
A: 283.18 ± 9.86 ng/g

Q: And the “5-HT content in brain tissues compared with the model group” value (5-HT; [7])?
A: significantly increased

Q: What about the 5-HIAA (5-HIAA; [5]) of the same compound?
A: 36.61 ± 1.84 ng/g

Q: And the 5-HIAA (5-HIAA; low dose 2 mg/kg/d for 7 days)?
A: 33.79 ± 2.51 ng/g

Q: And the 5-HIAA (5-HIAA; [6])?
A: 36.69 ± 2.00 ng/g

Q: And the “5-HIAA content in brain tissues compared with the model group” value (5-HIAA; groups at all doses (2, 40, 100 mg/kg/d), p<0.01)?
A: significantly increased

Q: And the GABA (GABA; [5])?
A: 9.66 ± 1.30 nmol/L

Q: And the GABA (GABA; low dose 2 mg/kg/d for 7 days)?
A: 8.53 ± 1.03 nmol/L

Q: What about the GABA (GABA; [6]) of the same compound?
A: 9.69 ± 0.98 nmol/L

Q: What about the “GABA content in brain tissues compared with the model group” value (GABA; groups at different doses (2, 40, 100 mg/kg/d), p<0.01) of the same compound?
A: significantly increased

Q: And the Glu (Glu; [5])?
A: 63.90 ± 2.88 μmol/gprot

Q: And the Glu (Glu; low dose 2 mg/kg/d for 7 days)?
A: 64.84 ± 4.18 μmol/gprot

Q: And the Glu/GABA (Glu/GABA; [5])?
A: 7.66 ± 1.03

Q: And the Glu/GABA (Glu/GABA; low dose 2 mg/kg/d for 7 days)?
A: 7.23 ± 1.90

Q: And the Glu/GABA (Glu/GABA; [6])?
A: 7.17 ± 1.20

Q: What about the “Glu/GABA values in brain tissues compared with the model group” value (Glu/GABA; groups at different doses (2, 40, 100 mg/kg/d), p<0.05) of the same compound?
A: significantly reduced

Q: What does the source list for COc1ccc2[nH]cc(CCNC(C)=O)c2c1 [Positive drug, melatonin, reference compound]?
A: Number of autonomous activities, after last administration ([1]; 10 mg/kg/d for 7 days): 174 ± 20.81; Number of autonomous activities, after last administration [1, 8]: significantly decreased; Number of autonomous activities, before administration [1, 9]: 267 ± 15.15; Body weight, 3rd day of administration ([2]; 10 mg/kg/d): 31.33 ± 4.21 g; Body weight, 7th day of administration ([2]; 10 mg/kg/d): 33.67 ± 3.80 g; Body weight, 3rd day of administration [2, 10]: increased significantly; Body weight, 7th day of administration [2, 10]: increased significantly; Body weight, after molding [2, 9]: 26.26 ± 3.39 g; Body weight, before molding [2, 9]: 26.51 ± 2.23 g; Sleep duration ([3]; 10 mg/kg/d for 7 days): 26.4 ± 6.92 min; Sleep latency ([3]; 10 mg/kg/d for 7 days): 226.00 ± 18.42 s; Sleep duration [3, 8]: increased significantly; Sleep latency [3, 8]: significantly reduced; 5-HIAA (5-HIAA; [11]): 37.15 ± 1.56 ng/g; 5-HIAA (5-HIAA; [12]): significantly increased; GABA (GABA; [11]): 6.89 ± 1.11 nmol/L; GABA (GABA; [12]): 6.89 ± 1.11 nmol/L; Glu (Glu; [11]): 53.52 ± 7.23 μmol/gprot; Glu (Glu; [12]): 53.52±7.23 μmol/gprot; Glu/GABA (Glu/GABA; [11]): 8.51 ± 1.55; Glu/GABA (Glu/GABA; [12]): significantly reduced
